{"source": "patent US12421277B2", "about": "“Anti-aging salmon roe tripeptide and preparation method and application thereof” (Shenzhen Porshealth Bioengineering Co., Ltd., priority 2023, dated 2025)", "assay": "Blood absorption of YLP in rats, UPLC-MS/MS", "conditions": "rat, in vivo, po, SD rats, intragastric 100 mg/kg bw", "experimental": "In this research, SD rats are used, and divided into three groups: a normal group and salmon YLP groups (with a daily dosage of 100 mg/kg bw). The rats are fasted but allowed to drink water 12 h before the experiment begins. At 15 min, 45 min, 90 min, 180 min and 360 min after intragastric administration, all the rats are anesthetized with the 3% pentobarbital sodium, and blood is collected from abdominal aortas, followed by euthanasia. […]\n• (1) The required samples are taken out for thawing, and uniformly mixed by a vortex. • (2) 40 μL of a mixed sample is taken, and 120 μL of methanol is added for shaking treatment for 10 min, and a resultant is centrifuged at a low temperature for 10 min. • (3) 70 μL of a supernatant solution is taken from the centrifuged sample for subsequent measurement. 4.2.2.2 Preparation of Standard Solution\nChromatographic separation is performed by using a Waters ACQUITY UPLC I-CLASS ultra-high performance liquid chromatographic device. Specific conditions are as follows: chromatographic column Waters UPLC HSS T3 ([…], 2.1 mm×100 mm)—mobile phase: A phase (water, 0.1% formic acid), B phase (methanol)—flow rate: 0.3 mL/min—injection volume: 5.0 μL—column temperature: 40° C. —single sample analysis time: 8 min.\nA Waters XEVO TQ-XS tandem quadrupole mass spectrometer is used for mass spectrometry detection. Specific conditions are as follows: positive ion source voltage: 3.0 kV—cone voltage: 30 V—desolvation temperature: 500° C. —desolvation gas flow rate: […]—cone gas flow rate: […].\nData is expressed in the form of Mean±SD. Graphpad is used for data processing and significance analysis. […] A target peak area in polypeptide metabolic data is calculated by using TargetLynx software, and an allowable error of a retention time is 15 s. Concentration calculation is based on a standard curve method to obtain quantitative results.", "note": "Where a SMILES comes first, the peptide text is derived from it."}
{"smiles": "CC(C)C[C@H](NC(=O)[C@@H](N)Cc1ccc(O)cc1)C(=O)N1CCC[C@H]1C(=O)O", "note": "[YLP] (H-Tyr-Leu-Pro-OH; N-terminus and C-terminus assumed)", "values": [{"measurement": "AUC", "setting": "15-360 min", "value": 6.19, "unit": "ng·h/mL"}, {"measurement": "Cmax", "setting": "at 90 min, read-out: maximum content of YLP in blood", "value": "1.31 ± 0.44", "unit": "ng/mL"}, {"measurement": "Tmax", "setting": "read-out: time of maximum content in blood (converted)", "value": 1.5, "unit": "h"}]}
